Among the data in patent US20240239781A1, “1H-PYRAZOLE DERIVATIVES AS SIGMA LIGANDS” (ACONDICIONAMIENTO TARRASENSE, priority 2021, published 2024) are Ki values, retold here.

Experiment [1] has as its target T1, human σ2/TMEM97 receptor (Homo sapiens, UniProt Q5BJF2).
T1 construct: expressed in transfected cells; host or cells: HEK-293
The experiment in a line: Binding assay to human σ2/TMEM97 receptor ([3H]-DTG, transfected HEK-293 membranes). The note with it: class scale, read-out: Binding σ-2 Ki. How it is done: Transfected HEK-293 membranes (15 μg) were incubated with 10 nM [^3H]-1,3-Di-o-tolylguanidine (DTG) in assay buffer containing Tris-HCl 50 mM at pH 8.0. NSB (non-specific binding) was measured by adding 10 μM haloperidol. The binding of the test compound was measured at either one concentration (% inhibition at 1 or 10 μM) or five different concentrations to determine affinity values (Ki). Plates were incubated at 25° C. for 120 minutes. After the incubation period, the reaction mix was transferred to MultiScreen HTS, FC plates (Millipore), filtered and washed 3 times with ice-cold 10 mM Tris-HCL (pH 8.0). Filters were dried and counted at approximately 40% efficiency in a MicroBeta scintillation counter (Perkin-Elmer) using EcoScint liquid scintillation cocktail.

Experiment [2] has as its target T2, human σ1 receptor (Homo sapiens, UniProt Q99720).
T2 construct: expressed in transfected cells; host or cells: HEK-293
The experiment in a line: Human σ1 receptor radioligand assay ([3H](+)-pentazocine, transfected HEK-293 membranes). The settings on record: class scale, read-out: Binding σ-1 Ki. How it is done:
Transfected HEK-293 membranes (7 μg) were incubated with 5 nM of [^3H](+)-pentazocine in assay buffer containing Tris-HCl 50 mM at pH 8. NBS (non-specific binding) was measured by adding 10 μM haloperidol. The binding of the test compound was measured at either one concentration (% inhibition at 1 or 10 μM) or five different concentrations to determine affinity values (Ki). Plates were incubated at 37° C. for 120 minutes. After the incubation period, the reaction mix was then transferred to MultiScreen HTS, FC plates (Millipore), filtered and plates were washed 3 times with ice-cold 10 mM Tris-HCL (pH7.4). Filters were dried and counted at approximately 40% efficiency in a MicroBeta scintillation counter (Perkin-Elmer) using EcoScint liquid scintillation cocktail.

T1 sequence (Q5BJF2 whole entry): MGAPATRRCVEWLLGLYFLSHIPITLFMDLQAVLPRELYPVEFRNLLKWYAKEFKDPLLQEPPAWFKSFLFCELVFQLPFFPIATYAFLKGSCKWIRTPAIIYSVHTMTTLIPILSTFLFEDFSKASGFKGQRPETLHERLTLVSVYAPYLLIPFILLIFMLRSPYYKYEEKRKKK
T2 sequence (Q99720 whole entry): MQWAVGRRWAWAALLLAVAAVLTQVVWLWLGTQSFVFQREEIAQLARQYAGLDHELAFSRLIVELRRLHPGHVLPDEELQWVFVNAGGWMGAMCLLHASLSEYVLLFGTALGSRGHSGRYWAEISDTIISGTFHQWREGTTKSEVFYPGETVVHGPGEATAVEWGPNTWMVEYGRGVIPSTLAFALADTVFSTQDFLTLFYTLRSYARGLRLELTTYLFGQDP

Turning to `Cc1cccc(-c2nn(C)c(Cl)c2CN2CC3(CCN(CCC(C)(C)C)CC3)CC2=O)n1` [Example 228, 2-((5-Chloro-1-methyl-3-(6-methylpyridin-2-yl)-1H-pyrazol-4-yl)methyl)-8-(3,3-dimethylbutyl)-2,8-diazaspiro[4.5]decan-3-one], the Ki in experiment [1] and in experiment [2] was 100 to 500 nM in each case.

Turning to `Cn1cc(-c2nn(C)c(Cl)c2C(=O)N2CCC3(CCN(CCC(C)(C)C)CC3)CC2)cn1` [Example 178, (5-Chloro-1,1′-dimethyl-1H,1′H-[3,4′-bipyrazol]-4-yl)(9-(3,3-dimethylbutyl)-3,9-diazaspiro[5.5]undecan-3-yl)methanone], the Ki in experiment [1] was 100 to 500 nM; in experiment [2], above 1000 nM.

For the compound `Cc1cc(-c2nn(C)c(Cl)c2CN2CC[C@H](CNCCC(C)(C)C)C2)no1` [Example 74, (R)-N-((1-((5-chloro-1-methyl-3-(5-methylisoxazol-3-yl)-1H-pyrazol-4-yl)methyl)pyrrolidin-3-yl)methyl)-3,3-dimethylbutan-1-amine], the Ki was below 100 nM in experiment [1] and 100 to 500 nM in experiment [2].

Turning to `CCn1nc(-c2cc(C)on2)c(C(=O)NC2CCC3(CC2)CCN(CCC(C)(C)C)CC3)c1Cl` [Example 143, 5-Chloro-N-(3-(3,3-dimethylbutyl)-3-azaspiro[5.5]undecan-9-yl)-1-ethyl-3-(5-methylisoxazol-3-yl)-1H-pyrazole-4-carboxamide], the Ki in experiment [1] and in experiment [2] was below 100 nM in each case.

On to `CCn1nc(-c2cc(C)on2)c(C(=O)NCC2CCCN(CCC(C)(C)C)C2)c1Cl` (centres unmarked) [Example 205, 5-Chloro-N-((1-(3,3-dimethylbutyl)piperidin-3-yl)methyl)-1-ethyl-3-(5-methylisoxazol-3-yl)-1H-pyrazole-4-carboxamide], for which the inhibition constant (Ki) in experiment [1] and in experiment [2] was below 100 nM throughout.

In the case of `Cn1nc(-c2cc(C3CC3)on2)c(C(=O)N2CCC3(CCN(CCC(C)(C)C)CC3)CC2)c1Cl` [Example 191, (5-Chloro-3-(5-cyclopropylisoxazol-3-yl)-1-methyl-1H-pyrazol-4-yl)(9-(3,3-dimethylbutyl)-3,9-diazaspiro[5.5]undecan-3-yl)methanone], the Ki is below 100 nM in experiment [1] and 100 to 500 nM in experiment [2].

For `Cc1cc(-c2nn(C)c(Cl)c2C(=O)N2CCCCC(N(C)CCC(C)C)C2)no1` (centres unmarked) [Example 111, (5-Chloro-1-methyl-3-(5-methylisoxazol-3-yl)-1H-pyrazol-4-yl)(3-(isopentyl(methyl)amino)azepan-1-yl)methanone], the Ki in experiment [1] lay in the range of 500 to 1000 nM; in experiment [2], 100 to 500 nM.

For `CC(C)c1cc(-c2nn(C)c(Cl)c2C(=O)N2CCC3(CCN(CCC(C)(C)C)CC3)CC2)no1` [Example 177, (5-Chloro-3-(5-isopropylisoxazol-3-yl)-1-methyl-1H-pyrazol-4-yl)(9-(3,3-dimethylbutyl)-3,9-diazaspiro[5.5]undecan-3-yl)methanone], the Ki in experiment [1] was below 100 nM; in experiment [2], 100 to 500 nM.

`Cc1cc(-c2nn(C)c(Cl)c2CC(=O)N2CCCC3(CCN(CCC(C)(C)C)CC3)C2)no1` [Example 214, 2-(5-Chloro-1-methyl-3-(5-methylisoxazol-3-yl)-1H-pyrazol-4-yl)-1-(9-(3,3-dimethylbutyl)-2,9-diazaspiro[5.5]undecan-2-yl)ethan-1-one]: the Ki in experiment [1] is below 100 nM; in experiment [2], 100 to 500 nM.

Regarding `CCn1cc(-c2nn(C)c(Cl)c2C(=O)N2CCC3(CCN(CCC(C)(C)C)CC3)CC2)cn1` [Example 196, (5-Chloro-1′-ethyl-1-methyl-1H,1′H-[3,4′-bipyrazol]-4-yl)(9-(3,3-dimethylbutyl)-3,9-diazaspiro[5.5]undecan-3-yl)methanone], the Ki is below 100 nM in experiment [1] and 500 to 1000 nM in experiment [2].

For `Cc1cc(-c2nn(C)c(Cl)c2CN2CCC(CNCc3ccccc3)C2)no1` (centres unmarked) [Example 44, N-Benzyl-1-(1-((5-chloro-1-methyl-3-(5-methylisoxazol-3-yl)-1H-pyrazol-4-yl)methyl)pyrrolidin-3-yl)methanamine], the Ki in experiment [1] and in experiment [2] was 500 to 1000 nM each time.

For `Cc1cc(-c2nn(C)c(Cl)c2C(=O)N2CCC3(CN(CCC(C)(C)C)C3)C2)no1` [Example 105, (5-Chloro-1-methyl-3-(5-methylisoxazol-3-yl)-1H-pyrazol-4-yl)(2-(3,3-dimethylbutyl)-2,6-diazaspiro[3.4]octan-6-yl)methanone], the Ki in experiment [1] is 100 to 500 nM; in experiment [2], above 1000 nM.

As for `Cc1cc(-c2nn(C)c(Cl)c2CN2CCC(C3(NCCC(C)C)CC3)C2)no1` (centres unmarked) [Example 62, 1-(1-((5-Chloro-1-methyl-3-(5-methylisoxazol-3-yl)-1H-pyrazol-4-yl)methyl)pyrrolidin-3-yl)-N-isopentylcyclopropanamine], the Ki in experiment [1] was 100 to 500 nM; in experiment [2], 500 to 1000 nM.

For the compound `Cn1nc(-c2cccc(C(F)(F)F)n2)c(CC(=O)NC2CCN(CCC(C)(C)C)CC2)c1Cl` [Example 222, 2-(5-Chloro-1-methyl-3-(6-(trifluoromethyl)pyridin-2-yl)-1H-pyrazol-4-yl)-N-(1-(3,3-dimethylbutyl)piperidin-4-yl)acetamide], the Ki in experiment [1] and in experiment [2] was below 100 nM throughout.

For the compound `Cc1cc(-c2nn(C)c(Cl)c2CC(=O)N2CCC3(CCN(CCC(C)(C)C)CC3)CC2)no1` [Example 208, 2-(5-Chloro-1-methyl-3-(5-methylisoxazol-3-yl)-1H-pyrazol-4-yl)-1-(9-(3,3-dimethylbutyl)-3,9-diazaspiro[5.5]undecan-3-yl)ethan-1-one], the Ki in experiment [1] was below 100 nM; in experiment [2] it was 500 to 1000 nM.

As to `Cc1cc(-c2nn(C)c(Cl)c2CN2CCC3(CC2)CCN(C(C)c2ccccc2)CC3)no1` (centres unmarked) [Example 65, 3-(5-Chloro-1-methyl-4-((9-(1-phenylethyl)-3,9-diazaspiro[5.5]undecan-3-yl)methyl)-1H-pyrazol-3-yl)-5-methylisoxazole], the Ki in experiment [1] and in experiment [2] was 100 to 500 nM throughout.

As to `CCn1nc(-c2cccc(C(F)(F)F)n2)c(CC(=O)NC2CCN(CCC(C)(C)C)CC2)c1Cl` [Example 223, 2-(5-chloro-1-ethyl-3-(6-(trifluoromethyl)pyridin-2-yl)-1H-pyrazol-4-yl)-N-(1-(3,3-dimethylbutyl)piperidin-4-yl)acetamide], the Ki in experiment [1] and in experiment [2] was below 100 nM each time.

Consider `CC(C)CCNC1CCCCN(Cc2c(-c3ccccn3)nn(C)c2Cl)C1` (centres unmarked) [Example 26, 1-((5-Chloro-1-methyl-3-(pyridin-2-yl)-1H-pyrazol-4-yl)methyl)-N-isopentylazepan-3-amine], for which the Ki was above 1000 nM in experiment [1] and 500 to 1000 nM in experiment [2].

For `Cc1cc(-c2nn(C)c(Cl)c2CC(=O)NC2CCN(CCC(C)(C)C)CC2)no1` [Example 220, 2-(5-Chloro-1-methyl-3-(5-methylisoxazol-3-yl)-1H-pyrazol-4-yl)-N-(1-(3,3-dimethylbutyl)piperidin-4-yl)acetamide], the Ki was below 100 nM in experiment [1] and 100 to 500 nM in experiment [2].

As for `Cn1nc(-c2ccccn2)c(C(=O)N2CCC3(CCN(CCC(C)(C)C)CC3)CC2)c1Cl` [Example 173, (5-Chloro-1-methyl-3-(pyridin-2-yl)-1H-pyrazol-4-yl)(9-(3,3-dimethylbutyl)-3,9-diazaspiro[5.5]undecan-3-yl)methanone], the Ki in experiment [1] is below 100 nM; in experiment [2], 500 to 1000 nM.

With `Cc1cc(-c2nn(C)c(Cl)c2C(=O)N2CCC3(CCN(CC(C)C)CC3)CC2)no1` [Example 89, (5-Chloro-1-methyl-3-(5-methylisoxazol-3-yl)-1H-pyrazol-4-yl)(9-isobutyl-3,9-diazaspiro[5.5]undecan-3-yl)methanone], the Ki in experiment [1] and in experiment [2] was above 1000 nM throughout.

In the case of `Cc1cc(-c2nn(C)c(Cl)c2C(=O)N2CCC3(CCN(CC(=O)N4CCC(F)(F)CC4)CC3)CC2)no1` [Example 113, 2-(9-(5-Chloro-1-methyl-3-(5-methylisoxazol-3-yl)-1H-pyrazole-4-carbonyl)-3,9-diazaspiro[5.5]undecan-3-yl)-1-(4,4-difluoropiperidin-1-yl)ethanone], the inhibition constant (Ki) is 100 to 500 nM in experiment [1] and above 1000 nM in experiment [2].

In the case of `Cc1cc(-c2nn(C)c(Cl)c2C(=O)N2CCC3(CCCN(CCC(C)(C)C)C3)CC2)no1` [Example 91, (5-Chloro-1-methyl-3-(5-methylisoxazol-3-yl)-1H-pyrazol-4-yl)(2-(3,3-dimethylbutyl)-2,9-diazaspiro[5.5]undecan-9-yl)methanone], the Ki in experiment [1] was below 100 nM; in experiment [2] it was 500 to 1000 nM.

As to `Cc1cc(-c2nn(C)c(Cl)c2CN2CCC3(C2)CN(CCc2ccccc2)C3)no1` [Example 61, 3-(5-Chloro-1-methyl-4-((2-phenethyl-2,6-diazaspiro[3.4]octan-6-yl)methyl)-1H-pyrazol-3-yl)-5-methylisoxazole], the values for the Ki in experiment [1] and in experiment [2] were below 100 nM and 100 to 500 nM, respectively.

As to `Cc1cc(-c2nn(C)c(Cl)c2C(=O)N2CCCC(CNCCC(C)(C)C)C2)no1` (centres unmarked) [Example 83, (5-Chloro-1-methyl-3-(5-methylisoxazol-3-yl)-1H-pyrazol-4-yl)(3-(((3,3-dimethylbutyl)amino)methyl)piperidin-1-yl)methanone], the Ki in experiment [1] was below 100 nM; in experiment [2], 500 to 1000 nM.

The Ki is a measure of affinity in units of concentration, obtained from inhibition or displacement.
